The target of this experiment is human fatty acid synthase FASN (Homo sapiens (Human), UniProt P49327). Briefly: Biochemical activity testing of human fatty acid synthase FASN (NADPH fluorescence intensity enzyme assay). The settings on record: human recombinant full-length fatty acid synthase. An excerpt: Biochemical activity testing of human fatty acid synthase FASN
Fatty acid synthase FASN is a multifunctional enzyme with seven catalytic activities thereby synthesising long chain fatty acids especially palmitoyl-CoA in the presence of co-factor NADPH starting from the substrates acetyl-CoA and malonyl-CoA. The reductive synthesis is realized by the oxidation of NADPH to NADP. Since NADPH has a high fluorescence intensity quantum yield compared to NADP with excitation at 340 nm and emission at 460 nm, the reaction can be monitored via the decrease in fluorescence intensity. The biochemical FASN activity testing was performed as 384 well two-time-point kinetic fluorescence intensity assay format in Greiner low volume medium binding 384-well black microtiter plates in a total assay volume of 8 μl and was used for high throughput screen. In each well 3 μl 40 nM human recombinant full-length fatty acid synthase (produced in-house in SF9 cells) were dispensed in the following assay buffer: 50 mM potassium phosphate buffer pH 7.0, 0.005% (w/v) BSA, 2 mM Glutathione, 0.02% Tween-20. Then 2 μl of 200 μM NADPH in assay buffer were added, followed by the addition of the test compounds in 10 dilution concentrations starting with 30 μM (final concentration) to get a final DMSO content of 1% (v/v). The mixture was incubated for at least 15 min at room temperature. After the pre-incubation the enzymatic reaction was started by the addition of 2 μl substrate solution (80 μM acetyl-CoA, 240 μM malonyl-CoA). A first fluorescence intensity measurement (time point one) was performed with an Envision multimode reader (Perkin Elmer LAS Germany GmbH) at excitation wavelength 340 nm (lamp mode) and emission wavelength 460 nm. The reaction was incubated for 30 minutes at room temperature. After this the fluorescence intensity was measured again in the Envision using the same parameters as described above (second time point measurement). The data were analysed by subtracting the first time point measurement value from the second time point measurement value (after the enzymatic reaction). The differences of the emission signals were determined. These reflect directly the conversion rate of NADPH. The full value used was the inhibitor-free reaction. A pharmacological zero value was used like GSK837149A (Sigma-Aldrich) in a final concentration of 5-10 μM. The inhibitory values (IC50) were determined using either the program Symyx Assay Explorer® or Condosseo® from GeneData.

The source of these data is patent publication US9670142B2, “1,3-diaminocyclopentane carboxamide derivatives” (Merck Patent GmbH, priority 2013, dated 2017).

Each structure is given as a SMILES string. pIC50: −log10 of the molar value. Some results are limits rather than exact numbers.

human fatty acid synthase FASN, sequence (P49327 whole entry): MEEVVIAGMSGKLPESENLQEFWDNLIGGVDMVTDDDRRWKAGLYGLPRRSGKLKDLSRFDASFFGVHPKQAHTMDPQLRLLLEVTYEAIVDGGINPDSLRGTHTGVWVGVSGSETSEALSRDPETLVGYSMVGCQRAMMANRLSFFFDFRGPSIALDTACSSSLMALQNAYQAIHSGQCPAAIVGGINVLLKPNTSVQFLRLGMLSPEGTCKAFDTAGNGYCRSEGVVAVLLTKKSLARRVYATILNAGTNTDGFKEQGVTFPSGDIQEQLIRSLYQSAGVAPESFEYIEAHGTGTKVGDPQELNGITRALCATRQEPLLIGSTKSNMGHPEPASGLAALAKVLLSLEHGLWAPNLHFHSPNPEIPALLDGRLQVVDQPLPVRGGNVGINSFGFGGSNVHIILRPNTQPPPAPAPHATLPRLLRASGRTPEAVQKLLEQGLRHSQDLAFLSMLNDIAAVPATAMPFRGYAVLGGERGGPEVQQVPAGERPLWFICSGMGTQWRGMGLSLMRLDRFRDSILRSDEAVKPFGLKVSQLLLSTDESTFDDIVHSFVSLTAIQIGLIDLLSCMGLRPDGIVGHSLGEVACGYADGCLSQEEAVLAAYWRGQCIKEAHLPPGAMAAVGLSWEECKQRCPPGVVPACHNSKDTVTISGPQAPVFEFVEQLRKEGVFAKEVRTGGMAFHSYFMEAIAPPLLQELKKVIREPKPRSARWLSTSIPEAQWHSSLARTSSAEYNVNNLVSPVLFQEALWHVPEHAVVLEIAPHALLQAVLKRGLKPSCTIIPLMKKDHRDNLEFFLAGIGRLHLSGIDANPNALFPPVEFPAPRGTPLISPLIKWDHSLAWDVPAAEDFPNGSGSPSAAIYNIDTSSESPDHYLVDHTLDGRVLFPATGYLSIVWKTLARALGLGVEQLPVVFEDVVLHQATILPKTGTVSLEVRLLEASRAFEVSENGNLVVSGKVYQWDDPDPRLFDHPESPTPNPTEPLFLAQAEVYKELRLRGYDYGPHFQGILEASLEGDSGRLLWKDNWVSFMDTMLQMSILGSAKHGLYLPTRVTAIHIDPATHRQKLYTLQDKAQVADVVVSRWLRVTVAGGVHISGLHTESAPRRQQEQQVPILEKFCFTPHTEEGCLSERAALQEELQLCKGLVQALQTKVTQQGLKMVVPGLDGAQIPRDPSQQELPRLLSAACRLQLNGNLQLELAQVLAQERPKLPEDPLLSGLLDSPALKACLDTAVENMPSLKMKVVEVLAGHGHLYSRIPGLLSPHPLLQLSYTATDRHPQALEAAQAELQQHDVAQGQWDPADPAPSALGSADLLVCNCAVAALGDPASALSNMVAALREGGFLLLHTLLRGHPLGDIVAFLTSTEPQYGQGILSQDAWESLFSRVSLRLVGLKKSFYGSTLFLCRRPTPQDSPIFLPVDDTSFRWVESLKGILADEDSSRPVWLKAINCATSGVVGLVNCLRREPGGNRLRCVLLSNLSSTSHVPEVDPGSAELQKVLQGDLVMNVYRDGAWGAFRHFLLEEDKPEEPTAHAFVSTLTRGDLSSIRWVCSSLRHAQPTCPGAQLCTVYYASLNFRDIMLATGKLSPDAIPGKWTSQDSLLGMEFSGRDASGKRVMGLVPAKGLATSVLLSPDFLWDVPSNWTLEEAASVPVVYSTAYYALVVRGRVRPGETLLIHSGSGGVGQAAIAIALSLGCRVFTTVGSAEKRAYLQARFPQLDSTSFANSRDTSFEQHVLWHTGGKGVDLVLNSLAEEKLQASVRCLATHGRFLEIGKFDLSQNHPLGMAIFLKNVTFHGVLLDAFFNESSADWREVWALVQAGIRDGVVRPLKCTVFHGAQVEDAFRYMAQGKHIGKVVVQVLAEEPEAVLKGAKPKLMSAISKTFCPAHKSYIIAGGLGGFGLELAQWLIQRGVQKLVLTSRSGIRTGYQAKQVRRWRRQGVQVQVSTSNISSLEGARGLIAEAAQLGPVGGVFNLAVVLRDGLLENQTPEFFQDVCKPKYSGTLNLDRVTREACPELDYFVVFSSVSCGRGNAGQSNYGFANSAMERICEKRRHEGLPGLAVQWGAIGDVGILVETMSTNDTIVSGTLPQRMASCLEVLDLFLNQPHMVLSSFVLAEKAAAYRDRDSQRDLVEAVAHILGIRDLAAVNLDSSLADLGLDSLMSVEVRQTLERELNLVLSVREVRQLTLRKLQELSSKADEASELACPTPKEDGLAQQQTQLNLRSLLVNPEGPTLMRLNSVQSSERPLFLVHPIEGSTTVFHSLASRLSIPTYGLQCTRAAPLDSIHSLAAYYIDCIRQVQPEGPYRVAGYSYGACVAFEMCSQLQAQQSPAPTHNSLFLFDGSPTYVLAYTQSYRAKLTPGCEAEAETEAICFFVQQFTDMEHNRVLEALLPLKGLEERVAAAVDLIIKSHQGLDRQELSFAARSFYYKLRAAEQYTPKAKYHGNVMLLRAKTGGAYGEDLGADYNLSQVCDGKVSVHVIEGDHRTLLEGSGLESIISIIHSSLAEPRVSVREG

The pIC50 is −log10 of the IC50, conventionally taken in molar units. In the case of `CCC(=O)N[C@H]1CC[C@@H](N(C)C(=O)c2ccc(-c3ccc(OC)cc3)cc2)C1` [Compound A82, 4′-methoxy-biphenyl-4-carboxylic acid methyl-((1R,3S)-3-propionylamino-cyclopentyl)-amide], the pIC50 is greater than 6.52. Regarding `CCC(=O)N[C@H]1CC[C@@H](N(C)C(=O)c2ccc(-c3cc(F)c(C#N)c(F)c3)cc2)C1` [Compound A61, 4′-cyano-3′,5′-difluoro-biphenyl-4-carboxylic acid methyl-((1R,3S)-3-propionylamino-cyclopentyl)-amide], the pIC50 is 4.30 to 5.52. For `CN(C(=O)c1ccc(-c2nc3ccccc3o2)cc1)[C@@H]1CC[C@H](NC(=O)[C@H]2CCCO2)C1` [Compound A40, (R)-tetrahydro-furan-2-carboxylic acid {(1S,3R)-3-[(4-benzoxazol-2-yl-benzoyl)-methyl-amino]-cyclopentyl}-amide] the value was greater than 6.52. Turning to `CCC(=O)N[C@H]1CC[C@@H](N(C)C(=O)c2ccc(-c3ccc4c(c3)OCCO4)cc2)C1` [Compound A87, 4-(2,3-dihydro-benzo[1,4]dioxin-6-yl)-N-methyl-N-((1R,3S)-3-propionylamino-cyclopentyl)-benzamide], the pIC50 is greater than 6.52. For `CN(C(=O)c1ccc(-c2nc3ccc(Cl)cc3o2)cc1)[C@@H]1CC[C@H](NC(=O)[C@@H]2CCCO2)C1` [Compound A138, (S)-tetrahydro-furan-2-carboxylic acid ((1S,3R)-3-{[4-(6-chloro-benzooxazol-2-yl)-benzoyl]-methyl-amino}-cyclopentyl)-amide] the value was greater than 6.52. For `CCC(=O)N[C@H]1CC[C@@H](N(C)C(=O)c2ccc(-c3ccncc3)cc2)C1` [Compound A4, N-methyl-N-((1R,3S)-3-propionylamino-cyclopentyl)-4-pyridin-4-yl-benzamide] the value was greater than 6.52. For `CCC(=O)N[C@H]1CC[C@@H](N(C)C(=O)c2ccc(-c3nc4cc(Cl)ccc4o3)cc2)C1` [Compound A9, 4-(5-chloro-benzoxazol-2-yl)-N-methyl-N-((1R,3S)-3-propionylamino-cyclopentyl)-benzamide] the value was greater than 6.52; for `CCC(=O)N[C@H]1CC[C@@H](N(C)C(=O)c2ccc(-c3ccc(-n4cccn4)cc3)cc2)C1` [Compound A68, 4′-pyrazol-1-yl-biphenyl-4-carboxylic acid methyl-((1R,3S)-3-propionylamino-cyclopentyl)-amide], greater than 6.52. In the case of `CN(C(=O)c1ccc(-c2nc3ccc(Cl)cc3o2)nn1)[C@@H]1CC[C@H](NC(=O)[C@@H]2CCCO2)C1` [Compound A158, 6-(6-chloro-1,3-benzoxazol-2-yl)-N-methyl-N-[(1R,3S)-3-[[(2S)-tetrahydrofuran-2-carbonyl]amino]cyclopentyl]pyridazine-3-carboxamide], the pIC50 is 5.52 to 6.52. On to `CCC(=O)N[C@H]1CC[C@@H](N(C)C(=O)c2ccc(-c3nc4ccc(F)cc4o3)cc2)C1` [Compound A127, 4-(6-fluoro-benzoxazol-2-yl)-N-methyl-N-((1R,3S)-3-propionylamino-cyclopentyl)-benzamide], for which the pIC50 was greater than 6.52. For `CCC(=O)N[C@H]1CC[C@@H](N(C)C(=O)c2ccc(-c3ccc(C#N)cc3)cc2)C1` [Compound A12, 4′-cyano-biphenyl-4-carboxylic acid methyl-((1R,3S)-3-propionylamino-cyclopentyl)-amide] the value was greater than 6.52. With `CCC(=O)N[C@H]1CC[C@@H](N(C)C(=O)c2ccc(C#Cc3ccc(Cl)cc3)cc2)C1` [Compound A14, 4-(4-chloro-phenylethynyl)-N-methyl-N-((1R,3S)-3-propionylamino-cyclopentyl)-benzamide] the figure was greater than 6.52. With `CCC(=O)N[C@H]1CC[C@@H](N(C)C(=O)c2ccc(-c3nc4ccccc4o3)c(OC)c2)C1` [Compound A13, 4-benzoxazol-2-yl-3-methoxy-N-methyl-N-((1R,3S)-3-propionylamino-cyclopentyl)-benzamide] the figure was greater than 6.52. On to `CCC(=O)N[C@H]1CC[C@@H](N(C)C(=O)c2ccc(-c3ccc4[nH]ccc4c3)cn2)C1` [Compound A109, 5-(1H-indol-5-yl)-pyridine-2-carboxylic acid methyl-((1R,3S)-3-propionylamino-cyclopentyl)-amide], for which the pIC50 was greater than 6.52.

As for `CCC(=O)N[C@H]1CC[C@@H](N(C)C(=O)c2ccc(-c3ccc4c(c3)OCO4)cc2)C1` [Compound A58, 4-benzo[1,3]dioxol-5-yl-N-methyl-N-((1R,3S)-3-propionylamino-cyclopentyl)-benzamide], the pIC50 was greater than 6.52.

As to `CCC(=O)N[C@H]1CC[C@@H](N(C)C(=O)c2ccc(-c3ccc(OCC4CC4)cc3)cc2)C1` [Compound A70, 4′-cyclopropylmethoxy-biphenyl-4-carboxylic acid methyl-((1R,3S)-3-propionylamino-cyclopentyl)-amide], the pIC50 is greater than 6.52. With `CCC(=O)N[C@H]1CC[C@@H](N(C)C(=O)c2ccc(-c3ccc4cnn(C)c4c3)cc2)C1` [Compound A74, N-methyl-4-(1-methyl-1H-indazol-6-yl)-N-((1R,3S)-3-propionylamino-cyclopentyl)-benzamide] the figure was greater than 6.52. With `CCCC1CCC(c2ccc(-c3ccc(C(=O)N(C)[C@@H]4CC[C@H](NC(=O)CC)C4)cc3)cc2)OC1` (stereo partly drawn) [Compound A89, 4′-(5-propyl-tetrahydro-pyran-2-yl)-biphenyl-4-carboxylic acid methyl-((1R,3S)-3-propionylamino-cyclopentyl)-amide] the figure was 5.52 to 6.52; with `CCCCC(=O)N[C@H]1CC[C@@H](N(C)C(=O)c2ccc(-c3nc4ccccc4o3)cc2)C1` [Compound A24, 4-benzoxazol-2-yl-N-methyl-N-((1R,3S)-3-pentanoylamino-cyclopentyl)-benzamide], greater than 6.52; with `CCC(=O)N[C@H]1CC[C@@H](N(C)C(=O)c2ccc(-c3ccc4[nH]ccc4c3)cc2C)C1` [Compound A120, 4-(1H-indol-5-yl)-2,N-dimethyl-N-((1R,3S)-3-propionylamino-cyclopentyl)-benzamide], greater than 6.52. For the compound `CCC(=O)N[C@H]1CC[C@@H](N(C)C(=O)c2ccc(-c3ccc4[nH]nc(C)c4c3)cn2)C1` [Compound A105, 5-(3-methyl-1H-indazol-5-yl)-pyridine-2-carboxylic acid methyl-((1R,3S)-3-propionylamino-cyclopentyl)-amide], the pIC50 was greater than 6.52. With `CCC(=O)N[C@H]1CC[C@@H](N(C)C(=O)c2cnc(-c3ccc4[nH]ccc4c3)nc2)C1` [Compound A139, 2-(1H-indol-5-yl)-pyrimidine-5-carboxylic acid methyl-((1R,3S)-3-propionylamino-cyclopentyl)-amide] the figure was greater than 6.52; with `CCC(=O)N[C@H]1CC[C@@H](N(C)C(=O)c2ccc(-c3cc4cc[nH]c4cc3F)cc2)C1` [Compound A122, 4-(6-fluoro-1H-indol-5-yl)-N-methyl-N-((1R,3S)-3-propionylamino-cyclopentyl)-benzamide], greater than 6.52.

For `CC(=O)N[C@H]1CC[C@@H](N(C)C(=O)c2ccc(-c3nc4ccccc4o3)cc2)C1` [Compound A18, N-((1R,3S)-3-acetylamino-cyclopentyl)-4-benzooxazol-2-yl-N-methyl-benzamide], the negative-log IC50 (pIC50) is greater than 6.52. For `CCC(=O)N[C@H]1CC[C@@H](N(C)C(=O)c2ccc(-c3cn4cccnc4n3)cc2)C1` [Compound A10, 4-imidazo[1,2-a]pyrimidin-2-yl-N-methyl-N-((1R,3S)-3-propionylamino-cyclopentyl)-benzamide] the value was greater than 6.52; for `CCC(=O)N[C@H]1CC[C@@H](N(C)C(=O)c2ccc(-c3cc(F)c4[nH]ccc4c3)nn2)C1` [Compound A136, 6-(7-fluoro-1H-indol-5-yl)-pyridazine-3-carboxylic acid methyl-((1R,3S)-3-propionylamino-cyclopentyl)-amide], 5.52 to 6.52.

`CCC(=O)N[C@H]1CC[C@@H](N(C)C(=O)c2ccc(-c3nc4ccccc4n3C)cc2)C1` [Compound A123, N-methyl-4-(1-methyl-1H-benzimidazol-2-yl)-N-((1R,3S)-3-propionylamino-cyclopentyl)-benzamide]: the pIC50 was greater than 6.52. For `CCC(=O)N[C@H]1CC[C@@H](N(C)C(=O)c2ccc(-c3ccc(OC(F)F)cc3)cc2)C1` [Compound A85, 4′-difluoromethoxy-biphenyl-4-carboxylic acid methyl-((1R,3S)-3-propionylamino-cyclopentyl)-amide] the value was greater than 6.52. With `CCC(=O)N[C@H]1CC[C@@H](N(C)C(=O)c2ccc(-c3ccc(C(C)C)cc3)cc2)C1` [Compound A96, 4′-isopropyl-biphenyl-4-carboxylic acid methyl-((1R,3S)-3-propionylamino-cyclopentyl)-amide] the figure was 5.52 to 6.52.
